Assays:
[1] = test system: podocytes; assay: Glutamine uptake rate in cultured podocytes; assay type: cell-based, mouse; details: injury stimulus
Text: A podocyte metabolic model was constructed based on available databases as well as mRNA and protein expression data extracted from podocytes. The following podocyte culture models were employed: wildtype (control), LPS and PAN stimulated podocytes (inducible injury models) as well as podocytes with genetic deletion of the alpha3 gene (genetic disease model). All injury cultures increase the uptake of glutamine as well as gluconeogenic aminoacids. In addition, there is increasing ammonia production in diseased podocytes. These changes were predicted by the podocyte metabolic model and confirmed by measuring directly amino acids and ammonia (FIGS. 1A-1D).
Metabolic Flux Analysis emphasizes glutamine utilization pathways for podocyte function: We utilized cultured normal podocytes (control) (15) and three in vitro models for podocyte damage: i) podocytes with α3 integrin deletion (genetic model) (16); ii) podocytes treated with lipopolysaccharides (LPS, immunological model) (17); and iii) podocytes treated with puromycin aminonucleoside (PAN, toxic model) (18). […] Using the podocyte MFA network, we were able to extract podocyte aminoacid and glucose utilization (FIG. 10b-d) that was also independently measured in direct validation studies (data not shown). All analyzed modeling and experimentation data supported the notion that the aminoacid metabolism of podocytes is changed in disease. […]

[2] = test system: HEK293; assay: Glutamine uptake rate in HEK293 cells; assay type: cell-based
Experimental: (§1) All together, these experiments discovered a uniform metabolic response for podocytes that are injured.
(§2) Cells, antibodies, and standard techniques: Mouse podocyte cell lines (15) and HEK 293 cells (6) were grown as described previously. NIH 3T3 cells were cultured in Dulbecco's modified Eagle's minimal essential medium (Invitrogen, Carlsbad, Calif.) supplemented with 10% fetal calf serum (Invitrogen) and incubated in a humidified atmosphere of 95% air and 5% CO2 at 37° C. Antibody used for immunostaining are Alexa Fluor 594 phalloidin (Molecular Probes, Eugene, Oreg.). Subcellular fractionation was performed as described previously (6).

[3] = test system: cathepsin L; assay: Cathepsin L activity in cultured podocytes, CV-(FR)2 substrate; assay type: cell-based, mouse; details: effect of the injury stimulus itself
Experimental: Subcellular sites of cathepsin L and cathepsin B activity in glomerular extracts were visualized by a fluorogenic substrate, CV-(FR)2, which emits light upon cleavage by cathepsin L or cathepsin B (Biomol).
Measurement of cathepsin L activity: Cathepsin L activities in cultured podocytes and in glomeruli was measured using CV-CatL detection kit (Biomol, Plymouth Meeting, Pa.) as described in the manufacturer's instructions. The fluorophore cresyl violet [CV-(FR)2] substrate becomes florescent after Cat L cleavage of the attached Phe-Arg groups. This substrate easily penetrates the cell membrane and the membranes of the internal cellular organelles, enabling the detection of cathepsin activity within living podocytes.

[4] = test system: podocytes; assay: Intracellular pH of podocytes by phosphorus NMR; assay type: cell-based, mouse; details: after 24 hours of LPS exposure; 7.0 under normal conditions
Experimental: Another example is using phosphorus NMR spectra for untreated and LPS-treated podocytes. Briefly, podocytes are cultured and treated with LPS. 8×10^7 to 1×10^8 cells are harvested and cultured in phosphate-free medium prior to assay. Phosphorous NMR spectra are acquired and analyzed using an iNMR software package. Intracellular pH (pHi) is calculated from the chemical shift difference (d) between the intracellular inorganic phosphate peak (Pi) and the primary phosphate of nucleoside phosphates (Pa) using equation 1.
Measurement of intracellular pH by NMR: Eighty to hundred million podocyte cells were harvested and resuspended in 2-2.5 mL of phosphate-free RPMI medium (MP Biomedicals, Solon, Ohio) with 2.0 mM glutamine (Invitrogen) prior to assay. Phosphorous NMR spectra were acquired on a 14 Tesla Bruker Avance NMR spectrometer (Bruker BioSpin, Billerica, Mass.) with a 10 mm broadband observe (BBO) NMR probe. Cell suspensions were placed in 10 mm (OD) glass NMR tubes (Wilmad LabGlass, Buena, N.J.). Samples were maintained at a temperature of 37° C. […] Spectra were analyzed using the iNMR software package (Mestrelab Research, Spain). Intracellular pH (pHi) was calculated from the chemical shift difference (d) between the intracellular inorganic phosphate peak (Pi) and the primary phosphate of nucleoside phosphates (Pa) using Eq. 1: […]

[5] = test system: SNAT3; assay: RT-PCR expression of SNAT glutamine transporters in mouse glomeruli; assay type: in vivo; details: glomeruli of mice stimulated with LPS
Text: Podocytes induce expression of SNAT glutamine transporters during injury: Having identified increased glutamine uptake and utilization as a signature for diseased podocytes that varies from other non-differentiated eukaryotic cells (FIG. 7), we studied the expression of the expression of system A (SNAT1, 2, 4) and system N(SNAT3, 5, 6) family members of sodium-coupled neutral amino acid transporters in cultured podocytes (FIG. 2a). Glutamine is known to be a favored substrate throughout the family, except for SNAT4 (21). We also studied these transporters in isolated mouse glomeruli (FIG. 2a). All SNATs were expressed besides SNAT5, 3 and 4 were only found at low levels. […] SNAT3, formerly known as SN1 (Slc38a3), is known as an antiporter that function in the presence of Na+ and takes up glutamine for the exchange of H+. It is highly expressed on the mRNA and protein level in the kidney during metabolic acidosis and involved in the regulation of acid-base homeostasis (22-24).
(§3) RT-PCR: We isolated total RNA from murine cultured podocytes and mouse glomeruli using the Trizol reagent (Invitrogen) according to the manufacturer's instructions. cDNA synthesis was performed with SuperScript II Reverse Transcriptase (Invitrogen) using Oligo(dT)12-18 oligonucleotide primers according to the manufacturer's instructions. All samples were run in duplicates.

[6] = test system: SNAT3; assay: RT-PCR expression of SNAT glutamine transporters in cultured podocytes; assay type: cell-based, mouse
Experimental: In brief, total RNA from cultured mouse podocytes was isolated with RNA isolation kit (Qiagen, Germantown, Md.) and the amount of RNA was measured by spectrophotometry. Purified RNA was reverse transcribed and PCR performed using PCR Mastercycler (Eppendorf, Westbury, N.Y.).
as §3

[7] = test system: NIH 3T3; assay: Glutamine uptake rate in NIH 3T3 cells; assay type: cell-based
Experimental: as §1, §2

Question: Which results are given for lipopolysaccharides [LPS]?
Answer: glutamine uptake rate [1]: stimulated; glutamine uptake rate [2]: did not respond; cathepsin L activity in podocytes [3]: stimulate; podocyte cytosolic pH (NMR) [4]: 6.9; SNAT3 mRNA expression [5]: increased markedly; SNAT3 mRNA expression [6]: prominent induction; glutamine uptake rate [7]: did not respond

Source: patent publication US9205135B2, “Podocyte pH modulation and uses thereof” (University of Miami, priority 2009, dated 2015)
